Active and inactive are the calls of the source. No cut-off for these calls is given here.
Key:
BEAS-2B = assay: Cytotoxicity against human BEAS-2B cells assessed as reduction in cell viability at 0.5 to 2 uM; format: toxicity, cell-based; settings: dose 0.5-2 µM
[1] = molecular target: T1, Isocitrate dehydrogenase [NADP] cytoplasmic (Homo sapiens, UniProt O75874, R132C); assay: Inhibition of IDH1 R132C mutant in human HT-1080 cells assessed as reduction in 2-HG level incubated for 48 hrs in presence of NAD+ by resazurin fluorescence dye based Sigma MAK320-1 assay kit analysis; format: cell-based
HT-1080 [2] = assay: Induction of apoptosis in human HT-1080 cells assessed as early apoptotic cells at 4 uM incubated for 48 hrs by Annexin V-FITC/PI staining based flow cytometric analysis (reference value: 2.33 %); format: functional
HT-1080 [3] = assay: Induction of apoptosis in human HT-1080 cells assessed as late apoptotic cells at 6 uM incubated for 24 hrs by Annexin V-FITC/PI staining based flow cytometric analysis (reference value: 0.60 %); format: functional
U-87 MG = assay: Antiproliferative activity against human U-87 MG cells harboring IDH1 R132H mutant assessed as reduction in cell viability incubated for 72 hrs by MTT assay; format: functional, U-87MG ATCC
HT-1080 [4] = assay: Induction of apoptosis in human HT-1080 cells assessed as necrotic cells at 6 uM incubated for 24 hrs by Annexin V-FITC/PI staining based flow cytometric analysis (reference value: 0.38 %); format: functional
HT-1080 [5] = assay: Induction of apoptosis in human HT-1080 cells assessed as viable cells at 2 uM incubated for 48 hrs by Annexin V-FITC/PI staining based flow cytometric analysis (reference value: 96.07 %); format: functional; settings: read-out: Activity
[6] = Tmax in Sprague-Dawley rat at 0.5 mg/kg, iv measured after 24 hrs by LC-MS/MS analysis; format: ADME, organism-based; settings: in vivo
HT-1080 [7] = assay: Induction of apoptosis in human HT-1080 cells assessed as viable cells at 6 uM incubated for 12 hrs by Annexin V-FITC/PI staining based flow cytometric analysis (reference value: 96.65 %); format: functional; settings: read-out: Activity
HT-1080 [8] = assay: Induction of apoptosis in human HT-1080 cells assessed as necrotic cells at 6 uM incubated for 48 hrs by Annexin V-FITC/PI staining based flow cytometric analysis (reference value: 0.38 %); format: functional
HT-1080 [9] = assay: Induction of apoptosis in human HT-1080 cells assessed as early apoptotic cells at 6 uM incubated for 24 hrs by Annexin V-FITC/PI staining based flow cytometric analysis (reference value: 2.36 %); format: functional
HT-1080 [10] = assay: Induction of apoptosis in human HT-1080 cells assessed as necrotic cells at 4 uM incubated for 48 hrs by Annexin V-FITC/PI staining based flow cytometric analysis (reference value: 0.45 %); format: functional
HT-1080 [11] = assay: Induction of apoptosis in human HT-1080 cells assessed as late apoptotic cells at 8 uM incubated for 48 hrs by Annexin V-FITC/PI staining based flow cytometric analysis (reference value: 1.15 %); format: functional
[12] = Half-life in Sprague-Dawley rat at 5 mg/kg, po measured after 24 hrs by LC-MS/MS analysis; format: ADME, organism-based; settings: in vivo
[13] = molecular target: T1, Isocitrate dehydrogenase [NADP] cytoplasmic; assay: Inhibition of recombinant human IDH1 R132C mutant extracted from Escherichia coli BL21 (DE3) cells using alpha-ketoglutarate as substrate incubated for 60 mins in presence of NADPH by absorbance based assay
[14] = test system: Isocitrate dehydrogenase [NADP] cytoplasmic (Homo sapiens), O75874 [R132H]; assay: Inhibition of recombinant human IDH1 R132H mutant extracted from Escherichia coli BL21 (DE3) cells using alpha-ketoglutarate as substrate at 2 uM incubated for 60 mins in presence of NADPH by absorbance based assay relative to control
[15] = molecular target: Isocitrate dehydrogenase [NADP] cytoplasmic (Homo sapiens, UniProt O75874); assay: Inhibition of recombinant human wildtype IDH1 extracted from Escherichia coli BL21 (DE3) cells using alpha-ketoglutarate as substrate incubated for 60 mins in presence of NADPH by absorbance based assay
HT-1080 [16] = assay: Cell cycle arrest in human HT-1080 cells assessed as S phase cells at 2 uM incubated for 24 hrs by PI staining based flow cytometric analysis (reference value: 18.3 %); format: functional
HT-1080 [17] = assay: Inhibition of cell migration in human HT-1080 cells incubated for 24 hrs by cell scratch assay; format: functional, cell-based; settings: dose 1-3 µM
HT-1080 [18] = assay: Induction of apoptosis in human HT-1080 cells assessed as early apoptotic cells at 8 uM incubated for 48 hrs by Annexin V-FITC/PI staining based flow cytometric analysis (reference value: 2.33 %); format: functional
HT-1080 [19] = assay: Cell cycle arrest in human HT-1080 cells assessed as S phase cells at 10 uM incubated for 24 hrs by PI staining based flow cytometric analysis (reference value: 18.3 %); format: functional
[20] = In vivo inhibition of IDH1 mutant in female nude mouse xenografted with human HT-1080 cells assessed as reduction in 2-HG levels in tumor at 20 mg/kg, ip administered twice at 1 hrs interval by resazurin fluorescence dye based Sigma MAK320-1 assay kit analysis relative to control; format: functional
HT-1080 [21] = assay: Antiproliferative activity against human HT-1080 cells harboring IDH1 R132C mutant assessed as reduction in cell viability incubated for 72 hrs by MTT assay; format: functional
HT-1080 [22] = assay: Induction of apoptosis in human HT-1080 cells assessed as late apoptotic cells at 2 uM incubated for 48 hrs by Annexin V-FITC/PI staining based flow cytometric analysis (reference value: 1.15 %); format: functional
HT-1080 [23] = assay: Induction of apoptosis in human HT-1080 cells assessed as late apoptotic cells at 4 uM incubated for 48 hrs by Annexin V-FITC/PI staining based flow cytometric analysis (reference value: 1.15 %); format: functional
HT-1080 [24] = assay: Induction of apoptosis in human HT-1080 cells assessed as necrotic cells at 6 uM incubated for 12 hrs by Annexin V-FITC/PI staining based flow cytometric analysis (reference value: 0.38 %); format: functional
[25] = Half-life in Sprague-Dawley rat at 0.5 mg/kg, iv measured after 24 hrs by LC-MS/MS analysis; format: ADME, organism-based; settings: in vivo
HT-1080 [26] = assay: Cell cycle arrest in human HT-1080 cells assessed as G2 phase cells at 10 uM incubated for 24 hrs by PI staining based flow cytometric analysis (reference value: 23.6 %); format: functional
HT-1080 [27] = assay: Antiproliferative activity against human HT-1080 cells harboring IDH1 R132C mutant assessed as reduction in cell viability at 10 uM incubated for 72 hrs by MTT assay; format: functional, cell-based
[28] = test system: Isocitrate dehydrogenase [NADP] cytoplasmic (Homo sapiens), O75874 [R132C]; assay: Inhibition of recombinant human IDH1 R132C mutant extracted from Escherichia coli BL21 (DE3) cells using alpha-ketoglutarate as substrate at 2 uM incubated for 60 mins in presence of NADPH by absorbance based assay relative to control
HT-1080 [29] = assay: Cell cycle arrest in human HT-1080 cells assessed as G2 phase cells at 4 uM incubated for 24 hrs by PI staining based flow cytometric analysis (reference value: 23.6 %); format: functional
[30] = molecular target: Isocitrate dehydrogenase [NADP] cytoplasmic (Homo sapiens, UniProt O75874, R132H); assay: Inhibition of recombinant human IDH1 R132H mutant extracted from Escherichia coli BL21 (DE3) cells using alpha-ketoglutarate as substrate incubated for 60 mins in presence of NADPH by absorbance based assay
Sequence of Isocitrate dehydrogenase [NADP] cytoplasmic (Homo sapiens, UniProt O75874, R132H) (O75874 2-414 R132H limits assumed): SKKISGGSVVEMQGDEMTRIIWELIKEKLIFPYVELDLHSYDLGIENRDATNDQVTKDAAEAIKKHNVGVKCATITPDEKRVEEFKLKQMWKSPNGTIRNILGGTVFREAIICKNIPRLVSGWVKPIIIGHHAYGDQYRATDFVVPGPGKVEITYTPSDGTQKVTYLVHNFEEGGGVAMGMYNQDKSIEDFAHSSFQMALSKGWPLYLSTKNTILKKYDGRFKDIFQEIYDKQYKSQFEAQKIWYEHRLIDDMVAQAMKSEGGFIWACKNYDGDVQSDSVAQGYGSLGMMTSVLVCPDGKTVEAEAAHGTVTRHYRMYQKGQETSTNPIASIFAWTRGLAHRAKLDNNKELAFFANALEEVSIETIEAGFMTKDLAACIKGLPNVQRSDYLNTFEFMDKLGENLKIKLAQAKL

T1 sequence (O75874 2-414 R132C limits assumed): as the sequence (O75874 2-414 R132H limits assumed) above, with H131C counted along it
Sequence of Isocitrate dehydrogenase [NADP] cytoplasmic (Homo sapiens), O75874 [R132C] (O75874 whole entry R132C): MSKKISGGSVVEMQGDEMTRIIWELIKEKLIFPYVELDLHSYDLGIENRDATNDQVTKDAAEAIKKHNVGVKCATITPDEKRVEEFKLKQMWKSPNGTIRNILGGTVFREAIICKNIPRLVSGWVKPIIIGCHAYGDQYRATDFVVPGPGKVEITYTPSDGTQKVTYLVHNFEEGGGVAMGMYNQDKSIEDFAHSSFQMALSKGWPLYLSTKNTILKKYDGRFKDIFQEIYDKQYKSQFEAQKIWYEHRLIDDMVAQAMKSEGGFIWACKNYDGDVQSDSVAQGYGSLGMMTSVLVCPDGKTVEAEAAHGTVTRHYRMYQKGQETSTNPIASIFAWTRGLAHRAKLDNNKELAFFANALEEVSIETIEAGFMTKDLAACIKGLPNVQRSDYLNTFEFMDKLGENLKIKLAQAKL
Sequence of Isocitrate dehydrogenase [NADP] cytoplasmic (Homo sapiens), O75874 [R132H] (O75874 whole entry R132H): as the sequence (O75874 whole entry R132C) above, with C132H counted along it
Sequence of Isocitrate dehydrogenase [NADP] cytoplasmic (Homo sapiens, UniProt O75874) (O75874 whole entry): as the sequence (O75874 whole entry R132C) above, with C132R counted along it

With `COc1cc(O)c(-c2cc(-c3ccc(O)cc3)nc(N3CCNCC3)n2)cc1CC=C(C)C` the Activity (BEAS-2B) was “Non-Toxic”, the EC50 [1] was 84 nM and the Activity (HT-1080 [2]) was 4.48%. It also gave an Activity (HT-1080 [3]) of 5.26%, a GC50 (U-87 MG) of 3480 nM and an Activity (HT-1080 [4]) of 4.16%. It also gave a viability at 2 µM (HT-1080 [5]) of 88.8%, a Tmax [6] of 1.8 min and a viability at 6 µM (HT-1080 [7]) of 91.5%. It also gave an Activity (HT-1080 [8]) of 1.35%, an Activity (HT-1080 [9]) of 3.25% and an Activity (HT-1080 [10]) of 2.13%. For the same compound, the Activity (HT-1080 [11]) was 17.93%, the half-life [12] was 2.13 h and the IC50 [13] was 95.7 nM. The inhibition [14] was > 100%, the IC50 [15] was > 20000 nM and the Activity (HT-1080 [16]) was 22.4%. For the same compound, the inhibition (HT-1080 [17]) was “Dose-Dependent Effect”, the Activity (HT-1080 [18]) was 7.82% and the Activity (HT-1080 [19]) was 51.6%. The inhibition in vivo at 20 mg/kg [20] was 75%, the GC50 (HT-1080 [21]) was 1380 nM and the Activity (HT-1080 [22]) was 4.96%. It also gave an Activity (HT-1080 [23]) of 9.67%, an Activity (HT-1080 [24]) of 4.99% and a half-life [25] of 1.46 h. For the same compound, the Activity (HT-1080 [26]) was 3%, the Activity (HT-1080 [27]) was “Active” and the inhibition [28] was > 100%. It also gave an Activity (HT-1080 [29]) of 21% and an IC50 [30] of 124 nM.
